Measured values: publication PMC6199744, “Development of Chemical Proteomics for the Folateome and Analysis of the Kinetoplastid Folateome” (ACS Infectious Diseases, 2018)

Test system: L. major lysate proteins
Experiment: Multitargeted bead mixture chemoproteomics, single concentration competition, proteome-wide
Type: binding
Settings: for fold change: vehicle control = 1

With NCCCNc1ccc(C(=O)NC(CCC(=O)O)C(=O)O)cc1 (stereo not drawn) [compound 7] the fold change (protein LMJF.15.0040 HYPOTHETICAL PROTEIN, CONSERVED (Possible lysine decarboxylase, putative)) was 0.73, the “fold change vs vehicle control” value (protein LMJF.15.0690 HY[…], CONSERVED) was 1.02 and the fold change (protein LMJF.15.1010 GLUTAMATE DEHYDROGENASE) was 1.04. For the same compound, the fold change (protein LMJF.15.1190 HY[…], CONSERVED (cyclic nucleotide-binding domain containing protein, putative)) was 1.08, the “fold change vs vehicle control” value (protein LMJF.16.0520 HY[…], CONSERVED) was 1.02 and the “fold change vs vehicle control” value (protein LMJF.16.0540 ASPARTATE CARBAMOYLTRANSFERASE, PUTATIVE) was 0.99. The “fold change relative to vehicle control” value (protein LMJF.16.0760, TRANSALDOLASE, PUTATIVE) was 0.99, the “fold change vs vehicle control” value (protein LMJF.16.0940 DYNEIN LIGHT CHAIN, PUTATIVE) was 1.11 and the “fold change relative to vehicle control” value (protein LMJF.16.1180, COATOMER DELTA SUBUNIT-LIKE PROTEIN) was 1.2. For the same compound, the “fold change relative to vehicle control” value (protein LMJF.16.1320, […], PUTATIVE) was 1.34, the “fold change relative to vehicle control” value (protein LMJF.16.1420, HY[…], CONSERVED) was 1.05 and the “fold change relative to vehicle control” value (protein LMJF.17.0081, […] 1-ALPHA) was 1.09. The “fold change relative to vehicle control” value (protein LMJF.18.0270, GLYCOGEN SYNTHASE KINASE, PUTATIVE) was 0.98, the fold change (protein LMJF.18.0580 P[…]-COA HYDRATASE, PUTATIVE) was 1.04 and the “fold change relative to vehicle control” value (protein LMJF.18.0680, CITRATE SYNTHASE, PUTATIVE) was 1.06. The “fold change vs vehicle control” value (protein LMJF.18.1010 DYNEIN LIGHT CHAIN 2B, CYTOPLASMIC, PUTATIVE) was 1.15, the “fold change vs vehicle control” value (protein LMJF.18.1210 PROLYL-TRNA SYNTHETASE, PUTATIVE,BI[…]-TRNA SYNTHETASE, PUTATIVE) was 1.03 and the “fold change vs vehicle control” value (protein LMJF.18.1370 HEAT SHOCK PROTEIN, PUTATIVE) was 1.14. The fold change (protein LMJF.19.0200 ADP,ATP CARRIER PROTEIN 1, MIT[…], PUTATIVE) was 1.08, the “fold change vs vehicle control” value (protein LMJF.19.1120 […]-ATP-ASE SUBUNIT, PUTATIVE) was 1.07 and the “fold change vs vehicle control” value (protein LMJF.19.1160 HYPOTHETICAL PROTEIN, CONSERVED) was 0.99. For the same compound, the “fold change vs vehicle control” value (protein LMJF.19.1560 INOSINE-5'-MONOPHOSPHATE DEHYDROGENASE) was 0.97, the “fold change relative to vehicle control” value (protein LMJF.19.1620, POTASSIUM VOLTAGE-GATED CHANNEL, PUTATIVE) was 1.12 and the “fold change vs vehicle control” value (protein LMJF.20.1280 SMALL MYRISTOYLATED PROTEIN 4, PUTATIVE) was 0.92. The fold change (protein LMJF.21.0810 METHIONYL-TRNA SYNTHETASE, PUTATIVE) was 0.87, the fold change (protein LMJF.21.1450 ARGININE N-METHYLTRANSFERASE, TYPE II, PUTATIVE) was 1.06 and the “fold change vs vehicle control” value (protein LMJF.21.1830 […] 5 SUBUNIT, PUTATIVE,20S […] ALPHA 5, (PUTATIVE)) was 1.01. For the same compound, the fold change (protein LMJF.22.0230 AMINO ACID PERMEASE, PUTATIVE) was 1.14, the “fold change vs vehicle control” value (protein LMJF.22.0570 […] SUBUNIT 1, PUTATIVE) was 1.04 and the “fold change vs vehicle control” value (protein LMJF.22.0730 HYPOTHETICAL PROTEIN, CONSERVED) was 0.96. For the same compound, the fold change (protein LMJF.22.0770 NADH-CYTOCHROME B5 REDUCTASE, PUTATIVE) was 0.85, the “fold change relative to vehicle control” value (protein LMJF.23.0020, HYPOTHETICAL PROTEIN, CONSERVED) was 1.99 and the “fold change relative to vehicle control” value (protein LMJF.23.0040, PEROXIDOXIN) was 0.99. For the same compound, the “fold change relative to vehicle control” value (protein LMJF.23.0080, HYPOTHETICAL PROTEIN, CONSERVED) was 0.99, the fold change (protein LMJF.23.0210 ATP-BINDING CASSETTE PROTEIN SUBFAMILY C, MEMBER 1, PUTATIVE) was 1.03 and the fold change (protein LMJF.23.0370 CYTOCHROME C OXIDASE SUBUNIT 10, PUTATIVE) was 0.97. The “fold change relative to vehicle control” value (protein LMJF.23.0540, ACETYL-COA SYNTHETASE, PUTATIVE) was 1.01, the “fold change vs vehicle control” value (protein LMJF.23.0560 KINESIN, PUTATIVE) was 0.91 and the “fold change vs vehicle control” value (protein LMJF.23.1410 HY[…], CONSERVED) was 1.12. The “fold change relative to vehicle control” value (protein LMJF.24.0070, HY[…], CONSERVED) was 1.03, the fold change (protein LMJF.24.0140 ANKYRIN/TPR REPEAT PROTEIN) was 0.93 and the fold change (protein LMJF.24.0400 HYPOTHETICAL PROTEIN, CONSERVED (TPR repeat, putative)) was 0.96. The “fold change relative to vehicle control” value (protein LMJF.24.1510, IGE-DEPENDENT HISTAMINE-RELEASING FACTOR, PUTATIVE) was 0.85, the “fold change relative to vehicle control” value (protein LMJF.24.1630, SUCCINATE DEHYDROGENASE FLAVOPROTEIN, PUTATIVE) was 1 and the “fold change relative to vehicle control” value (protein LMJF.24.2060, TRANSKETOLASE) was 1.02. The “fold change relative to vehicle control” value (protein LMJF.25.0010, BETA […] TRANSFERASE) was 1.21, the “fold change relative to vehicle control” value (protein LMJF.25.0910, CYCLOPHILIN A) was 0.9 and the “fold change vs vehicle control” value (protein LMJF.25.1130 […] OXIDASE VII, PUTATIVE) was 1.09. The “fold change relative to vehicle control” value (protein LMJF.25.1180, ATPASE BETA SUBUNIT, PUTATIVE) was 1.06, the “fold change vs vehicle control” value (protein LMJF.25.1610 HY[…], CONSERVED) was 1.08 and the “fold change vs vehicle control” value (protein LMJF.25.1620 HYPOTHETICAL PROTEIN, CONSERVED) was 0.99. For the same compound, the fold change (protein LMJF.25.2340 SERINE/THREONINE-PROTEIN KINASE, PUTATIVE,PROTEIN KINASE, PUTATIVE) was 0.83, the “fold change relative to vehicle control” value (protein LMJF.26.0630, HY[…], CONSERVED) was 1.11 and the “fold change vs vehicle control” value (protein LMJF.26.1240 HEAT SHOCK PROTEIN 70-RELATED PROTEIN) was 1.06. The fold change (protein LMJF.26.1710 […] OXIDASE SUBUNIT V, PUTATIVE) was 1.03, the “fold change vs vehicle control” value (protein LMJF.26.2480 CDP-DIACYLGLYCEROL--INOSITOL 3-[…], PUTATIVE) was 1.06 and the “fold change vs vehicle control” value (protein LMJF.26.2560 HYPOTHETICAL PROTEIN, CONSERVED) was 0.94. The “fold change vs vehicle control” value (protein LMJF.27.0190 PROTEASOME ALPHA 7 SUBUNIT, PUTATIVE) was 0.97, the fold change (protein LMJF.27.0650 HY[…], CONSERVED) was 1.07 and the fold change (protein LMJF.27.0700 HYPOTHETICAL PROTEIN, CONSERVED) was 1.67. For the same compound, the “fold change vs vehicle control” value (protein LMJF.27.0760 GTP-binding protein homologue) was 0.78, the “fold change vs vehicle control” value (protein LMJF.27.1060 CYSTEINE DESULFURASE, PUTATIVE) was 0.93 and the “fold change vs vehicle control” value (protein LMJF.27.1110 MIT[…] BINDING PROTEIN 1,GBP21, MRP1) was 1.07. For the same compound, the fold change (protein LMJF.27.1250 HYPOTHETICAL PROTEIN, CONSERVED (Serine-threonine kinase receptor-associated protein, putative)) was 0.97, the “fold change relative to vehicle control” value (protein LMJF.27.1390, 60S ACIDIC RIBOSOMAL SUBUNIT PROTEIN, PUTATIVE) was 1.05 and the fold change (protein LMJF.27.1460 PROTEASOME REGULATORY NON-ATP-ASE SUBUNIT 3, PUTATIVE) was 0.87.
